Columns and labels:
Experiment in all cases: cells
MPP-89 = assay type: functional, cell-based, Homo sapiens;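 note: growth inhibition of human MPP-89 cells, read out with a cell viability assay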
Description: SANGER: Inhibition of human MPP-89 cell growth in a cell viability assay.

KM-H2 = assay type: functional, cell-based, Homo sapiens;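 note: growth inhibition of KM-H2 cells, read out by a cell viability assay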
Description: SANGER: Inhibition of human KM-H2 cell growth in a cell viability assay.

SHP77 = assay type: functional, cell-based, Homo sapiens, SHP-77;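 note: growth inhibition of human SHP-77 cells measured by a cell viability assay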
Description: SANGER: Inhibition of human SHP-77 cell growth in a cell viability assay.

HOP-62 = assay type: functional, cell-based, Homo sapiens;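 note: cell growth inhibition determined with a viability assay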
Description: SANGER: Inhibition of human HOP-62 cell growth in a cell viability assay.

A704 = assay type: functional, cell-based, Homo sapiens;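 note: growth inhibition of human A704 cells, read out with a cell viability assay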
Description: SANGER: Inhibition of human A704 cell growth in a cell viability assay.

MZ7-mel = assay type: functional, cell-based, Homo sapiens;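 note: growth inhibition of human MZ7-mel cells, measured by a cell viability assay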
Description: SANGER: Inhibition of human MZ7-mel cell growth in a cell viability assay.

GAK = assay type: functional, cell-based, Homo sapiens;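 note: cell growth inhibition read out by a cell viability assay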
Description: SANGER: Inhibition of human GAK cell growth in a cell viability assay.

EW-16 = assay type: functional, cell-based, Homo sapiens;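 note: growth inhibition of human EW-16 cells, read out as cell viability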
Description: SANGER: Inhibition of human EW-16 cell growth in a cell viability assay.

CGTH-W-1 = assay type: functional, cell-based, Homo sapiens;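 note: growth inhibition of human CGTH-W-1 cells measured by cell viability assay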
Description: SANGER: Inhibition of human CGTH-W-1 cell growth in a cell viability assay.

OCUB-M = assay type: functional, cell-based, Homo sapiens;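 note: growth inhibition of the cancer cell line, read out through a cell viability assay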
Description: SANGER: Inhibition of human OCUB-M cell growth in a cell viability assay.

COLO-668 = assay type: functional, cell-based, Homo sapiens
Description: SANGER: Inhibition of human COLO-668 cell growth in a cell viability assay.

KINGS-1 = assay type: functional, cell-based, Homo sapiens;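 note: cell viability assay measuring suppression of KINGS-1 cell growth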
Description: SANGER: Inhibition of human KINGS-1 cell growth in a cell viability assay.

ALL-PO = assay type: functional, cell-based, Homo sapiens;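 note: growth inhibition of ALL-PO cells, read out by a cell viability assay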
Description: SANGER: Inhibition of human ALL-PO cell growth in a cell viability assay.

HEL = assay type: functional, cell-based, Homo sapiens;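 note: growth inhibition of HEL cells, read out with a cell viability assay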
Description: SANGER: Inhibition of human HEL cell growth in a cell viability assay.

D-502MG = assay type: functional, cell-based, Homo sapiens
Description: SANGER: Inhibition of human D-502MG cell growth in a cell viability assay.

SH-4 = assay type: functional, cell-based, Homo sapiens;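 note: growth inhibition of SH-4 cells, read out with a cell viability assay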
Description: SANGER: Inhibition of human SH-4 cell growth in a cell viability assay.

LC-2-ad = assay type: functional, cell-based, Homo sapiens;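 note: growth inhibition of human LC-2-ad cells, read out with a cell viability assay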
Description: SANGER: Inhibition of human LC-2-ad cell growth in a cell viability assay.

A498 = assay type: functional, cell-based, Homo sapiens;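 note: growth inhibition of human A498 cells, read out with a cell viability assay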
Description: SANGER: Inhibition of human A498 cell growth in a cell viability assay.

NCI-H209 = assay type: functional, cell-based, Homo sapiens;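 note: growth inhibition of human NCI-H209 cells, measured by a cell viability assay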
Description: SANGER: Inhibition of human NCI-H209 cell growth in a cell viability assay.

NB10 = assay type: functional, cell-based, Homo sapiens;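 note: growth inhibition of NB10 cells, read out by a cell viability assay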
Description: SANGER: Inhibition of human NB10 cell growth in a cell viability assay.

KE-37 = assay type: functional, cell-based, Homo sapiens;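 note: growth inhibition of KE-37 cells, read out with a cell viability assay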
Description: SANGER: Inhibition of human KE-37 cell growth in a cell viability assay.

ACN = assay type: functional, cell-based, Homo sapiens;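 note: growth inhibition of the human ACN cell line, read out via cell viability testing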
Description: SANGER: Inhibition of human ACN cell growth in a cell viability assay.

SW684 = assay type: functional, cell-based, Homo sapiens;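 note: growth inhibition of human SW684 cells, measured by a cell viability assay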
Description: SANGER: Inhibition of human SW684 cell growth in a cell viability assay.

LB996-RCC = assay type: functional, cell-based, Homo sapiens
Description: SANGER: Inhibition of human LB996-RCC cell growth in a cell viability assay.

KNS-81-FD = assay type: functional, cell-based, Homo sapiens;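 note: growth inhibition of KNS-81-FD cells, read out with a cell viability assay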
Description: SANGER: Inhibition of human KNS-81-FD cell growth in a cell viability assay.

ES8 = assay type: functional, cell-based, Homo sapiens;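 note: growth inhibition of human ES8 cells, read out with a cell viability assay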
Description: SANGER: Inhibition of human ES8 cell growth in a cell viability assay.

SW 954 = assay type: functional, cell-based, Homo sapiens;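 note: growth inhibition of SW954 human cancer cells, read out as cell viability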
Description: SANGER: Inhibition of human SW954 cell growth in a cell viability assay.

BB30-HNC = assay type: functional, cell-based, Homo sapiens;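 note: growth inhibition of the cultured cell line, read out by a cell viability assay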
Description: SANGER: Inhibition of human BB30-HNC cell growth in a cell viability assay.

LS-411N = assay type: functional, cell-based, Homo sapiens
MFH-ino = assay type: functional, cell-based, Homo sapiens;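 note: growth inhibition of human MFH-ino cells, read out by a cell viability assay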
Description: SANGER: Inhibition of human MFH-ino cell growth in a cell viability assay.

SF-268 = assay type: functional, cell-based, Homo sapiens;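 note: growth inhibition of SF-268 cells determined with a cell viability assay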
Description: SANGER: Inhibition of human SF268 cell growth in a cell viability assay.

ES1 = assay type: functional, cell-based, Homo sapiens;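 note: growth inhibition of ES1 cells, read out with a cell viability assay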
Description: SANGER: Inhibition of human ES1 cell growth in a cell viability assay.

U-87 MG = assay type: functional, cell-based, Homo sapiens, U-87MG ATCC;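 note: growth inhibition of the cells measured with a viability assay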
Description: SANGER: Inhibition of human U-87-MG cell growth in a cell viability assay.

EM-2 = assay type: functional, cell-based, Homo sapiens;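 note: growth inhibition of EM-2 cells, read out with a cell viability assay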
Description: SANGER: Inhibition of human EM-2 cell growth in a cell viability assay.

GT3TKB = assay type: functional, cell-based, Homo sapiens;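 note: growth inhibition of the cell line, read out with a cell viability assay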
Description: SANGER: Inhibition of human GT3TKB cell growth in a cell viability assay.

PSN1 = assay type: functional, cell-based, Homo sapiens;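 note: suppression of growth of human PSN1 cells, read out by a cell viability assay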
Description: SANGER: Inhibition of human PSN1 cell growth in a cell viability assay.

RPMI-8226 = assay type: functional, cell-based, Homo sapiens
Description: SANGER: Inhibition of human RPMI-8226 cell growth in a cell viability assay.

NCI-H226 = assay type: functional, cell-based, Homo sapiens;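 note: cell viability read-out used to gauge growth inhibition of the cells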
Description: SANGER: Inhibition of human NCI-H226 cell growth in a cell viability assay.

BT-474 = assay type: functional, cell-based, Homo sapiens
Description: SANGER: Inhibition of human BT-474 cell growth in a cell viability assay.

NEC8 = assay type: functional, cell-based, Homo sapiens;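 note: growth inhibition of human NEC8 cells, read out by a cell viability assay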
Description: SANGER: Inhibition of human NEC8 cell growth in a cell viability assay.

HCC 2998 = assay type: functional, cell-based, Homo sapiens;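 note: growth inhibition of human HCC2998 cells, measured with a cell viability read-out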
Description: SANGER: Inhibition of human HCC2998 cell growth in a cell viability assay.

no-11 = assay type: functional, cell-based, Homo sapiens;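 note: growth inhibition of human NO-11 cells, read out with a cell viability assay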
Description: SANGER: Inhibition of human no-11 cell growth in a cell viability assay.

TK-10 = assay type: functional, cell-based, Homo sapiens;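 note: growth inhibition of TK-10 cells, read out in a cell viability assay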
Description: SANGER: Inhibition of human TK10 cell growth in a cell viability assay.

SW982 = assay type: functional, cell-based, Homo sapiens;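 note: growth inhibition of SW982 cells, read out with a cell viability assay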
Description: SANGER: Inhibition of human SW982 cell growth in a cell viability assay.

SK-MEL-2 = assay type: functional, cell-based, Homo sapiens;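 note: growth inhibition of human SK-MEL-2 cells measured with a cell viability assay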
Description: SANGER: Inhibition of human SK-MEL-2 cell growth in a cell viability assay.

MZ2-MEL = assay type: functional, cell-based, Homo sapiens;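 note: growth inhibition of MZ2-MEL cells read out with a cell viability assay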
Description: SANGER: Inhibition of human MZ2-MEL cell growth in a cell viability assay.

KMOE-2 = assay type: functional, cell-based, Homo sapiens;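 note: growth inhibition of human KMOE-2 cells, read out with a cell viability assay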
Description: SANGER: Inhibition of human KMOE-2 cell growth in a cell viability assay.

IST-MEL1 = assay type: functional, cell-based, Homo sapiens;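 note: growth inhibition of the cell line, read out with a cell viability assay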
Description: SANGER: Inhibition of human IST-MEL1 cell growth in a cell viability assay.

EW-3 = assay type: functional, cell-based, Homo sapiens;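 note: cell viability assay read-out, IC50 reflects inhibition of growth of the EW-3 cells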
Description: SANGER: Inhibition of human EW-3 cell growth in a cell viability assay.

CCC/C=C/C=C/C(=O)O[C@H]1/C(=C/C(=O)OC)C[C@H]2C[C@H]([C@@H](C)O)OC(=O)C[C@H](O)C[C@@H]3C[C@H](OC(C)=O)C(C)(C)[C@](O)(C[C@@H]4C/C(=C/C(=O)OC)C[C@H](/C=C/C(C)(C)[C@]1(O)O2)O4)O3 [BRYOSTATIN 1]
IC50 (MPP-89; Homo sapiens, MPP-89): > 0.008 µM
IC50 (KM-H2; Homo sapiens, KM-H2): > 0.008 µM
IC50 (SHP77; Homo sapiens, SHP77): > 0.008 µM
IC50 (HOP-62; Homo sapiens, HOP-62): > 0.008 µM
IC50 (A704; Homo sapiens, A704): > 0.008 µM
IC50 (MZ7-mel; Homo sapiens, MZ7-mel): > 0.008 µM
IC50 (GAK; Homo sapiens, GAK): > 0.008 µM
IC50 (EW-16; Homo sapiens, EW-16): > 0.008 µM
IC50 (CGTH-W-1; Homo sapiens, CGTH-W-1): > 0.008 µM
IC50 (OCUB-M; Homo sapiens, OCUB-M): > 0.008 µM
IC50 (COLO-668; Homo sapiens, COLO-668): > 8 nM
IC50 (KINGS-1; Homo sapiens, KINGS-1): > 0.008 µM
IC50 (ALL-PO; Homo sapiens, ALL-PO): > 0.008 µM
IC50 (HEL; Homo sapiens, HEL): > 0.008 µM
IC50 (D-502MG; Homo sapiens, D-502MG): > 0.008 µM
IC50 (SH-4; Homo sapiens, SH-4): > 0.008 µM
IC50 (LC-2-ad; Homo sapiens, LC-2-ad): > 0.008 µM
IC50 (A498; Homo sapiens, A498): > 0.008 µM
IC50 (NCI-H209; Homo sapiens, NCI-H209): > 0.008 µM
IC50 (NB10; Homo sapiens, NB10): > 0.008 µM
IC50 (KE-37; Homo sapiens, KE-37): > 0.008 µM
IC50 (ACN; Homo sapiens, ACN): > 0.008 µM
IC50 (SW684; Homo sapiens, SW684): > 0.008 µM
IC50 (LB996-RCC; Homo sapiens, LB996-RCC): > 0.008 µM
IC50 (KNS-81-FD; Homo sapiens, KNS-81-FD): > 0.008 µM
IC50 (ES8; Homo sapiens, ES8): > 0.008 µM
IC50 (SW 954; Homo sapiens, SW 954): > 0.008 µM
IC50 (BB30-HNC; Homo sapiens, BB30-HNC): > 0.008 µM
IC50 (LS-411N; Homo sapiens, LS-411N): > 0.008 µM
IC50 (MFH-ino; Homo sapiens, MFH-ino): > 0.008 µM
IC50 (SF-268; Homo sapiens, SF-268): > 0.008 µM
IC50 (ES1; Homo sapiens, ES1): > 0.008 µM
IC50 (U-87 MG; Homo sapiens, U-87 MG): > 0.008 µM
IC50 (EM-2; Homo sapiens, EM-2): > 0.008 µM
IC50 (GT3TKB; Homo sapiens, GT3TKB): > 0.008 µM
IC50 (PSN1; Homo sapiens, PSN1): > 0.008 µM
IC50 (RPMI-8226; Homo sapiens, RPMI-8226): > 0.008 µM
IC50 (NCI-H226; Homo sapiens, NCI-H226): > 0.008 µM
IC50 (BT-474; Homo sapiens, BT-474): > 0.008 µM
IC50 (NEC8; Homo sapiens, NEC8): > 0.008 µM
IC50 (HCC 2998; Homo sapiens, HCC 2998): > 0.008 µM
IC50 (no-11; Homo sapiens): > 0.008 µM
IC50 (TK-10; Homo sapiens, TK-10): > 0.008 µM
IC50 (SW982; Homo sapiens, SW982): > 0.008 µM
IC50 (SK-MEL-2; Homo sapiens, SK-MEL-2): > 0.008 µM
IC50 (MZ2-MEL; Homo sapiens, MZ2-MEL): > 0.008 µM
IC50 (KMOE-2; Homo sapiens, KMOE-2): > 0.008 µM
IC50 (IST-MEL1; Homo sapiens, IST-MEL1): > 0.008 µM
IC50 (EW-3; Homo sapiens, EW-3): > 0.008 µM

Cc1cc([N+](=O)[O-])ccc1NS(=O)(=O)c1cc(Cl)ccc1Cl
IC50 (MPP-89; Homo sapiens, MPP-89): 20.1 µM
IC50 (KM-H2; Homo sapiens, KM-H2): 14.9 µM
IC50 (SHP77; Homo sapiens, SHP77): 22.9 µM
IC50 (HOP-62; Homo sapiens, HOP-62): 5.08 µM
IC50 (A704; Homo sapiens, A704): 2.58 µM
IC50 (MZ7-mel; Homo sapiens, MZ7-mel): 3.39 µM
IC50 (GAK; Homo sapiens, GAK): 2.01 µM
IC50 (EW-16; Homo sapiens, EW-16): 4.59 µM
IC50 (CGTH-W-1; Homo sapiens, CGTH-W-1): 11.9 µM
IC50 (OCUB-M; Homo sapiens, OCUB-M): 0.81 µM
IC50 (COLO-668; Homo sapiens, COLO-668): 4480 nM
IC50 (KINGS-1; Homo sapiens, KINGS-1): > 32 µM
IC50 (ALL-PO; Homo sapiens, ALL-PO): 2.34 µM
IC50 (HEL; Homo sapiens, HEL): 6.96 µM
IC50 (D-502MG; Homo sapiens, D-502MG): 0.607 µM
IC50 (SH-4; Homo sapiens, SH-4): 1.38 µM
IC50 (LC-2-ad; Homo sapiens, LC-2-ad): 4.63 µM
IC50 (A498; Homo sapiens, A498): > 32 µM
IC50 (NCI-H209; Homo sapiens, NCI-H209): > 32 µM
IC50 (NB10; Homo sapiens, NB10): 16.3 µM
IC50 (KE-37; Homo sapiens, KE-37): > 32 µM
IC50 (ACN; Homo sapiens, ACN): 3.71 µM
IC50 (SW684; Homo sapiens, SW684): > 32 µM
IC50 (LB996-RCC; Homo sapiens, LB996-RCC): 14.5 µM
IC50 (KNS-81-FD; Homo sapiens, KNS-81-FD): 21.2 µM
IC50 (ES8; Homo sapiens, ES8): 8.95 µM
IC50 (SW 954; Homo sapiens, SW 954): 7.26 µM
IC50 (BB30-HNC; Homo sapiens, BB30-HNC): 2.61 µM
IC50 (LS-411N; Homo sapiens, LS-411N): 4.52 µM
IC50 (MFH-ino; Homo sapiens, MFH-ino): 0.506 µM
IC50 (SF-268; Homo sapiens, SF-268): 6.02 µM
IC50 (ES1; Homo sapiens, ES1): 11.4 µM
IC50 (U-87 MG; Homo sapiens, U-87 MG): 22.4 µM
IC50 (EM-2; Homo sapiens, EM-2): 16.3 µM
IC50 (GT3TKB; Homo sapiens, GT3TKB): 2.9 µM
IC50 (PSN1; Homo sapiens, PSN1): 3.22 µM
IC50 (RPMI-8226; Homo sapiens, RPMI-8226): 6.56 µM
IC50 (NCI-H226; Homo sapiens, NCI-H226): 12.3 µM
IC50 (BT-474; Homo sapiens, BT-474): 4.42 µM
IC50 (NEC8; Homo sapiens, NEC8): 21.7 µM
IC50 (HCC 2998; Homo sapiens, HCC 2998): 3.15 µM
IC50 (no-11; Homo sapiens): 6.74 µM
IC50 (TK-10; Homo sapiens, TK-10): 10.2 µM
IC50 (SW982; Homo sapiens, SW982): 9.22 µM
IC50 (SK-MEL-2; Homo sapiens, SK-MEL-2): 1.72 µM
IC50 (MZ2-MEL; Homo sapiens, MZ2-MEL): 1.44 µM
IC50 (KMOE-2; Homo sapiens, KMOE-2): 3.84 µM
IC50 (IST-MEL1; Homo sapiens, IST-MEL1): 11.2 µM
IC50 (EW-3; Homo sapiens, EW-3): > 32 µM

BLEOMYCIN
IC50 (MPP-89; mpp-89): 39.9 µM
IC50 (KM-H2; km-h2): 6.97 µM
IC50 (SHP77; shp-77): 142 µM
IC50 (HOP-62; hop-62): 0.00413 µM
IC50 (A704; a704): 10.6 µM
IC50 (MZ7-mel; mz7-mel): 0.13 µM
IC50 (GAK; gak): 126 µM
IC50 (EW-16; ew-16): 0.00685 µM
IC50 (CGTH-W-1; cgth-w-1): 4.3 µM
IC50 (OCUB-M; ocub-m): 1.81 µM
IC50 (COLO-668; colo-668): 0.0218 nM
IC50 (KINGS-1; kings-1): 1270 µM
IC50 (ALL-PO; all-po): 0.986 µM
IC50 (HEL; hel): 10.8 µM
IC50 (D-502MG; d-502mg): 1010 µM
IC50 (SH-4; sh-4): 7.85 µM
IC50 (LC-2-ad; lc-2-ad): 0.0804 µM
IC50 (A498; a498): 1020 µM
IC50 (NCI-H209; nci-h209): 34.3 µM
IC50 (NB10; nb10): 13.8 µM
IC50 (KE-37; ke-37): 25.9 µM
IC50 (ACN; acn): 0.808 µM
IC50 (SW684; sw684): 3870 µM
IC50 (LB996-RCC; lb996-rcc): 0.175 µM
IC50 (KNS-81-FD; kns-81-fd): 664 µM
IC50 (ES8; es8): 1.4 µM
IC50 (SW 954; sw 954): 0.00957 µM
IC50 (BB30-HNC; bb30-hnc): 0.0163 µM
IC50 (LS-411N; ls-411n): 0.0528 µM
IC50 (MFH-ino; mfh-ino): 0.00265 µM
IC50 (SF-268; sf-268): 1.32 µM
IC50 (ES1; es1): 0.0267 µM
IC50 (U-87 MG; u-87mg atcc): 11.1 µM
IC50 (EM-2; em-2): 84.8 µM
IC50 (GT3TKB; gt3tkb): 0.00685 µM
IC50 (PSN1; psn1): 0.139 µM
IC50 (RPMI-8226; rpmi-8226): 906 µM
IC50 (NCI-H226; nci-h226): 77.4 µM
IC50 (BT-474; bt-474): 2080 µM
IC50 (NEC8; nec8): 0.0269 µM
IC50 (HCC 2998; hcc 2998): 0.00659 µM
IC50 (no-11): 85.6 µM
IC50 (TK-10; tk-10): 0.999 µM
IC50 (SW982; sw982): 0.417 µM
IC50 (SK-MEL-2; sk-mel-2): 8.49 µM
IC50 (MZ2-MEL; mz2-mel): 2.95 µM
IC50 (KMOE-2; kmoe-2): 544 µM
IC50 (IST-MEL1; ist-mel1): 0.28 µM
IC50 (EW-3; ew-3): 18.5 µM
